Like-named read-outs stand apart in the source and are kept apart here.
Legend:
[1] = tested on: PC-3 cells; experiment: Wound healing migration assay; type: cell-based, human; settings: 5 μM, 24 h
Description: Figure 5 Anti-migratory and anti-invasive potential of NRs (A) Effect of NRs treatment (5 μmol/L) on PC-3 cell migration was assessed by wound healing assay after 24 h of wound formation. Representative photomicrographs of initial and final wounds are shown at 100x magnification. (B) Effect of NRs on PC-3 cell invasion was evaluated by transwell migration assay. PC-3 cells were seeded on matrigel coated boyden chamber and treated with NRs (5 μmol/L, 24 h). Photographs represent the extent of cell invasion in each of the treated cells. (C) Western blot analysis of the effect of NRs on the expression of cadherins in PC-3 cells. Cells were treated with indicated compound 20 μmol/L for 24 h. […] For wound healing assay highly metastatic PC-3 cells were plated in a 24 well plate at a seeding density of 5 × 10^5 cells/ well and allowed to form a confluent monolayer for 24 h. Cells were made dormant by pretreating with 0.5 μmol/L mitomycin C for 2 h to ensure that wounds are filled due to cell migration and not by cell proliferation. Subsequently, the monolayer was scratched with a pipette tip, washed with media to remove floating cells, and photographed (time 0 h). Cells were then treated with indicated compounds (5 μM) and the experiment was terminated as soon as wound was completely filled in vehicle treated controls. Cells were then photographed again using Nikon TE2000 microscope at three randomly selected sites per well [43].

[2] = tested on: MR49F cells; experiment: MTT growth inhibition in Enzalutamide resistant MR49F cells; type: cell-based, human; settings: Homo sapiens, MR49F; read-out: GI50 MR49F (Figure 2C)
Description: Figure 2 Effect of NRs on PCa cell growth and colony formation (A) Representative photographs of colonies formed in PCa cells at 14th day after initial treatment with specified compounds (5 μmol/L). Colonies were fixed with methanol and stained with crystal violet. (B) Data represents the mean ± S.E from three independent experiments. *, P< 0.05; ♣, P<0.01 compared to vehicle treated control. […] NRs that had promising inhibitory effect on cell proliferation on LNCaP cells were tested for their growth inhibitory effect in MR49F cells in comparison with Casodex and Abiraterone acetate by MTT assay.
(§1) Androgen-dependent (LNCaP), androgen-independent (PC-3) and castration resistant (C4-2B and 22Rv1) human prostate carcinoma cells were procured from American Type Culture Collection, Manassas, VA, USA and maintained in RPMI 1640 media (Gibco-Life Technologies, Grand Island, NY, USA) supplemented with 10% fetal bovine serum and 1% penicillin/streptomycin. […] Immortalized untransformed prostate epithelial cells, PWR1E from American Type Culture Collection were maintained in serum-free Keratinocyte media (Gibco) supplemented with epidermal growth factor and bovine pituitary extract. All cell lines were maintained in a 37 °C/5% CO2 humidified atmosphere.
(§2) Cell proliferation assay was performed as described previously. For cell growth experiment, cells were treated with the NRs for 7 days. MTT assay was performed at the end of the experiment. Calculations of combination indices were done using the Calcusyn program (Biosoft, Cambridge, United Kingdom). For colony formation assay, cells were plated 1000 per well in complete media and allowed to adhere for 24 h. The next day cells were treated with indicated compounds (5 μM). After 24 h compound containing media were removed, and cells were allowed to form colonies in complete media. Approximately 2 weeks later the colonies were fixed, stained with 0.5% crystal violet (sigma) for 30 min and counted manually. Results represent the mean ± standard deviation of three independent experiments.

[3] = tested on: LNCaP cells; experiment: MTT cell proliferation assay, 7 d, LNCaP; type: cell-based, human; settings: 7 d treatment
Description: as §1, §2

[4] = tested on: PCa cells; experiment: MTT cell viability in PCa cells (LNCaP, PC-3, C4-2B, 22Rv1); type: cell-based, human; settings: Homo sapiens, range over PCa cell lines
Description: as §2

[5] = tested on: PWR-1E cells; experiment: MTT cell proliferation assay, 7 d, PWR-1E; type: cell-based; settings: Homo sapiens, 168 h, immortalized untransformed prostate cells, 7 d treatment
Description: as §1, §2

[6] = tested on: LNCaP cells; experiment: Cell cycle FACS analysis (PI staining); type: cell-based, human; settings: 5 μM, 24 h, untreated control 37.1%
Description: Figure 4 Effect of NRs on cell cycle and apoptosis (A) LNCaP cells treated with 5 μM of NRs and other compounds for 24 h were stained with PI and analysed with a FACS calibur flow cytometer. (B) Total cell lysates from PCa cells treated with 20 μM of NRs were separated by SDS-PAGE and probed with cyclin D1 and B antibodies. […] (C) LNCaP cells were treated with indicated compounds (5 μmol/L) for 24 h and apoptosis induction was examined by oligonucleosomal fragmentation. Data are shown relative to vehicle treated control and the bars are means of three replicate determinations plus standard deviations. *, P< 0.01; ♣, P<0.05 compared with vehicle treated control. […] After 24 h the plates were analyzed for apoptotic and viable cells using acridine orange/ethidium bromide staining. […] (F) Apoptosis induction in LNCaP cells treated with 5 μmol/L of VNLG-147 and -152 in the presence or absence of ZVAD (5 μmol/L) was assessed by oligonucleosomal fragmentation after 24 h incubation. *, P< 0.05 compared with vehicle treated control. […]
Cells were harvested by trypsinization and then ﬁxed with 70% ethanol for 24 h at 4 °C. […] Stained cells were analyzed with a ﬂow cytometer using FlowJo software that exploits Watson algorithm to find out peak and S-phase populations from a univariate distribution curve.

[7] = tested on: PC-3 cells; experiment: MTT cell proliferation assay, 7 d, PC-3; type: cell-based; settings: Homo sapiens, PC-3, 168 h, 7 d treatment
Description: as §1, §2

GI50 ([3]; read-out: GI50 LNCaP): 2.45 µM
GI50 ([3]; Homo sapiens, LNCaP, 168 h, read-out: GI50 LNCaP): 2.5 µM
GI50 ([3]; Homo sapiens, LNCaP, 168 h, DHT induced, read-out: GI50 LNCaP, DHT induced): 1.86 µM
GI50 [4]: 1.5 to 5.5 µM
GI50 [7]: 5.62 µM
Compound: CC1=C(/C=C/C(C)=C/C=C/C(C)=C/C(=O)Nc2ccc(F)cc2)C(C)(C)CCC1n1ccnc1 (racemic) [VNLG-152]
PC-3 cell migration to the denuded zone [1]: potentially suppressed
GI50 [2]: 3.89 µM
GI50 [5]: 47.9 µM
percentage of cells in G1 phase [6]: 74.6%
